From patent US7285571B2, “Herbal chemical composition for the treatment of cancer” (Council of Scientific and Industrial Research, priority 2001, dated 2007)

Columns and labels:
Assay type in all cases: cell-based
cancer cells of cervix = experiment: Growth inhibition of cancer cells of cervix; conditions: Homo sapiens; concentration of about 100 μg/ml; SiHa; read-out: inhibits the growth of cancer cells of cervix
Protocol: (§1) The human cancer cell lines were obtained either from National center for cell science, Pune, India or National Cancer Institute, Frederick, Md., U.S.A. Cells were grown in tissue culture flasks in complete growth medium (RPMI-1640 medium with 2 mM glutamine, 100 μg/ml streptomycin, pH 7.4, sterilized by filtration and supplemented with 10% sterilized fetal calf serum and 100 units/ml penicillin before use) at 37° C. in an atmosphere of 5% CO2 and 90% relative humidity in a carbon dioxide incubator (WTB binder, Germany). The cells at subconfluent stage were harvested from the flask by treatment with trypsin (0.05% trypsin in PBS containing 0.02% EDTA) and suspended in complete growth medium. […]
(§2) Cell growth was measured by staining with sulforhodamine B dye (SRB). […] The optical density was recorded on ELISA reader at 540 run.
(§3) The cell growth in presence of test material was determined by subtracting mean OD value of respective blank from the mean OD value of experimental set. Like wise, cell growth in absence of test material (control set) and in presence of positive control was also determined. The percent cell growth in presence of test material was determined considering the cell growth in absence of test material as 100% and in turn percent inhibition was calculated.

IMR-32 = experiment: In vitro cytotoxicity (SRB), IMR-32; conditions: Homo sapiens; IMR-32 (neuroblastoma), 100 μg/ml, 48-hours; read-out: Percent growth inhibition
Protocol: as §1, §2, §3

cancer cells of lung = experiment: Growth inhibition of cancer cells of lung; conditions: Homo sapiens, A549; concentration of about 100 μg/ml; A-549; read-out: inhibits the growth of cancer cells of lung
Protocol: as §1, §2, §3

ZR-75-1 = experiment: In vitro cytotoxicity (SRB), ZR-75-1; conditions: Homo sapiens; ZR-75-1 (breast), 100 μg/ml, 48-hours; read-out: Percent growth inhibition
Protocol: as §1, §2, §3

cancer cells of liver = experiment: Growth inhibition of cancer cells of liver; conditions: Homo sapiens; concentration of about 100 μg/ml; Hep-2; read-out: inhibits the growth of cancer cells of liver
Protocol: as §1, §2, §3

Colo-205 = experiment: In vitro cytotoxicity (SRB), Colo-205; conditions: Homo sapiens, Colo-205 (colon), 48-hours, read-out: Percent growth inhibition; for inhibition at 10 µg/mL: 10 μg/ml; for inhibition at 30 µg/mL: 30 μg/ml; for inhibition at 100 µg/mL: 100 μg/ml
Protocol: (§4) The human cancer cell lines were obtained either from National center for cell science, Pune, India or National Cancer Institute, Frederick, Md., U.S.A. Cells were grown in tissue culture flasks in complete growth medium (RPMI-1640 medium with 2 mM glutamine, 100 μg/ml streptomycin, pH 7.4, sterilized by filtration and supplemented with 10% sterilized fetal calf serum and 100 units/ml penicillin before use) at 37° C. in an atmosphere of 5% CO2 and 90% relative humidity in a carbon dioxide incubator (WTB binder, Germany). The cells at subconfluent stage were harvested from the flask by treatment with trypsin (0.05% trypsin in PBS containing 0.02% EDTA) and suspended in complete growth medium. Cells with cell viability of more than 97% by trypan blue exclusion technique were used for determination of cytotoxicity.
(§5) (−)-Matairesinol was dissolved in DMSO (dimethyl sulphoxide) to obtain a stock solution of 20 mg/ml. The stock solution was serially diluted with complete growth medium containing 50 μg/ml of gentamycin to obtain three working test solutions of 200, 60 and 20 μg/ml
(§6) The suspension of human cancer cell lines of required cell density in complete growth medium was prepared and cell suspension ([…] per wall) of each cell line) of 96-well tissue culture plate. Three additional wells of each cell line were also prepared for control. Two blank wells for control and each experimental and each experimental set for every cell line were also included that contained equivalent amount of complete growth medium only. The plates were incubated at 37° C. in an atmosphere of 5% CO2 and 90% relative humidity in a carbon dioxide incubator.
(§7) The working test solutions of (−)-Matairesinol of different concentrations (100 μl) were added after 24-hours incubation in all the wells including blanks of the experimental set. The equivalent amount of complete growth medium was added to control set.
(§8) The plates were further incubated for 48-hours (at 37° C. in an atmosphere of 5% CO2 and 90% relative humidity in a carbon dioxide incubator) after addition of test material etc. and then the cell growth was stopped by gently layering of 50 μl of TCA (50% trichloroacetic acid) on top of the medium in all the wells. The plates were incubated at 4° C. for one hour to fix the cells attached to the bottom of the wells. Liquids of all the wells were gently pipetted out and discarded. The plates were washed five times with distilled water to remove TCA, growth medium, low molecular weight metabolites, serum proteins etc. Plates were air-dried.
(§9) Cell growth was measured by staining with sulforhodamine B dye (SRB). The SRB solution (100 μl of 0.4% in 1% acetic acid) was added to each well and the plates were incubated at room temperature for 30 minutes. The unbound SRB was quickly removed by washing the wells five times with 1-% acetic acid and plates were air-dried. Tris-buffer (100 μl of 0.01 M, pH 10.4) was added to all the wells and plates were gently stirred for 5 minutes on a mechanical stirrer. The optical density was recorded on ELISA reader at 540 run.
as §3

[1] = system: cancer cells of neuroblastoma; experiment: Growth inhibition of cancer cells of neuroblastoma; conditions: Homo sapiens; concentration of about 100 μg/ml; SKNMC and IMR-32; read-out: inhibits the growth of cancer cells of neuroblastoma
Protocol: as §1, §2, §3

SW-620 = experiment: In vitro cytotoxicity (SRB), SW-620; conditions: Homo sapiens, SW-620 (colon), 48-hours, read-out: Percent growth inhibition; for inhibition at 30 µg/mL: 30 μg/ml; for inhibition at 100 µg/mL: 100 μg/ml
Protocol: as §4, §5, §6, §7, §8
as §9, with “Tris-buffer (100 μl of 0.01 M, pH 10.4) was added to all the wells and plates were gently stirred for 5 minutes on a mechanical stirrer.” left out
as §3

HT-29 = experiment: In vitro cytotoxicity (SRB), HT-29; conditions: Homo sapiens, HT-29 (colon), 48-hours, read-out: Percent growth inhibition; for inhibition at 30 µg/mL: 30 μg/ml; for inhibition at 100 µg/mL: 100 μg/ml
Protocol: as §4, §5, §6, §7
The plates were further incubated for 48-hours (at 37° C. in an atmosphere of 5% CO2 and 90% relative humidity in a carbon dioxide incubator) after addition of test material etc. and then the cell growth was stopped by gently layering of 50 μl of TCA (50% trichloroacetic acid) on top of the medium in all the wells. […]
as §2, §3

human cancer cell lines = experiment: In vitro cytotoxicity against the human cancer cell lines studied (panel); conditions: for inhibition of cell growth of the human cancer cell lines studied (in words): 10, 30 and 100 μg/ml; for inhibition at 100 µg/mL: Homo sapiens, at 100 μg/ml, read-out: inhibition of cell growth, range over the human cancer cell lines studied
Protocol: as §4, §5, §6
The working test solutions of (−)-Matairesinol of different concentrations (100 μl) were added after 24-hours incubation in all the wells including blanks of the experimental set. The equivalent amount of complete growth medium was added to control set. […]
as §2, §3
In vitro cytotoxicity of (−)-matairesinol was determined against human breast (MCF-7 & ZR-75-1), neuroblastoma (SK-N-MC & IMR-32), cervix (SiHa), colon (Colo-205, HT-29 & SW-620), liver (HEP-2) and lung (A-549) cancer cell lines. […]

SiHa = experiment: In vitro cytotoxicity (SRB), SiHa; conditions: Homo sapiens, SiHa (cervix), 48-hours, read-out: Percent growth inhibition; for inhibition at 10 µg/mL: 10 μg/ml; for inhibition at 30 µg/mL: 30 μg/ml; for inhibition at 100 µg/mL: 100 μg/ml
Protocol: as §4, §5, §6, §7, §8, §9, §3

cancer cells of breast = experiment: Growth inhibition of cancer cells of breast; conditions: Homo sapiens; concentration of about 100 μg/ml; MCF-7 and ZR-75-1; read-out: inhibits the growth of cancer cells of breast
Protocol: as §1, §2, §3

A-549 = experiment: In vitro cytotoxicity (SRB), A-549; conditions: Homo sapiens, A549, A-549 (lung), 48-hours, read-out: Percent growth inhibition; for inhibition at 10 µg/mL: 10 μg/ml; for inhibition at 30 µg/mL: 30 μg/ml; for inhibition at 100 µg/mL: 100 μg/ml
Protocol: as §4, §5, §6, §7, §8, §9, §3

cancer cells of colon = experiment: Growth inhibition of cancer cells of colon; conditions: Homo sapiens; concentration of about 100 μg/ml; Colo-205, HT-29 and SW-620; read-out: inhibits the growth of cancer cells of colon
Protocol: as §1, §2, §3

MCF-7 = experiment: In vitro cytotoxicity (SRB), MCF-7; conditions: Homo sapiens, MCF7, MCF-7 (breast), 48-hours, read-out: Percent growth inhibition; for inhibition at 10 µg/mL: 10 μg/ml; for inhibition at 30 µg/mL: 30 μg/ml; for inhibition at 100 µg/mL: 100 μg/ml
Protocol: as §4, §5, §6, §7, §8, §9, §3

SKNMC = experiment: In vitro cytotoxicity (SRB), SKNMC; conditions: Homo sapiens, SK-N-MC; SKNMC (neuroblastoma), 100 μg/ml, 48-hours; read-out: Percent growth inhibition
Protocol: as §1, §2, §3

Hep-2 = experiment: In vitro cytotoxicity (SRB), Hep-2; conditions: Homo sapiens; Hep-2 (liver), 100 μg/ml, 48-hours; read-out: Percent growth inhibition
Protocol: as §1, §2, §3

| SMILES | inhibition at 100 µg/mL (cancer cells of cervix) [%] | inhibition at 100 µg/mL (IMR-32) [%] | inhibition at 100 µg/mL (cancer cells of lung) [%] | inhibition at 100 µg/mL (ZR-75-1) [%] | inhibition at 100 µg/mL (cancer cells of liver) [%] | inhibition at 10 µg/mL (Colo-205) [%] | inhibition at 30 µg/mL (Colo-205) [%] | inhibition at 100 µg/mL (Colo-205) [%] | inhibition at 100 µg/mL [1] [%] | inhibition at 30 µg/mL (SW-620) [%] | inhibition at 100 µg/mL (SW-620) [%] | inhibition at 30 µg/mL (HT-29) [%] | inhibition at 100 µg/mL (HT-29) [%] | inhibition of cell growth of the human cancer cell lines studied (in words) (human cancer cell lines) | inhibition at 100 µg/mL (human cancer cell lines) [%] | inhibition at 10 µg/mL (SiHa) [%] | inhibition at 30 µg/mL (SiHa) [%] | inhibition at 100 µg/mL (SiHa) [%] | inhibition at 100 µg/mL (cancer cells of breast) [%] | inhibition at 10 µg/mL (A-549) [%] | also measured |
| --- | --- | --- | --- | --- | --- | --- | --- | --- | --- | --- | --- | --- | --- | --- | --- | --- | --- | --- | --- | --- | --- |
| COc1cc(CC2COC(=O)C2(O)Cc2ccc(O)c(OC)c2)ccc1O (stereo in doubt) [(−)-Wikstromol] | ≤ 37 | 56 | ≤ 56 | 37 | ≤ 46 | 5 | 27 | 67 | ≤ 56 | 20 | 50 | 6 | 32 | dose dependent inhibition of cell growth | 32 to 67 | 16 | 21 | 37 | ≤ 51 | 21 | inhibition at 10 µg/mL (SW-620; 10 μg/ml): 14%; inhibition at 30 µg/mL (A-549): 37%; inhibition at 100 µg/mL (A-549): 56%; inhibition at 100 µg/mL (cancer cells of colon): ≤ 67%; inhibition at 10 µg/mL (MCF-7): 7%; inhibition at 30 µg/mL (MCF-7): 26%; inhibition at 100 µg/mL (MCF-7): 51%; inhibition at 100 µg/mL (SKNMC): 44%; inhibition at 100 µg/mL (Hep-2): 46% |
| COc1cc(C[C@H]2COC(=O)[C@@H]2Cc2ccc(O)c(OC)c2)ccc1O [(−)-Matairesinol] | ≤ 63 | 77 | ≤ 65 | 62 | ≤ 64 | 15 | 28 | 93 | ≤ 77 | 11 | 68 | 10 | 74 | dose dependent inhibition of cell growth | 54 to 93 | 10 | 29 | 63 | ≤ 62 | 19 | inhibition at 30 µg/mL (A-549): 33%; inhibition at 100 µg/mL (A-549): 65%; inhibition at 100 µg/mL (cancer cells of colon): ≤ 93%; inhibition at 10 µg/mL (MCF-7): 10%; inhibition at 30 µg/mL (MCF-7): 36%; inhibition at 100 µg/mL (MCF-7): 54%; inhibition at 100 µg/mL (SKNMC): 75%; inhibition at 100 µg/mL (Hep-2): 64% |
